Where two headings read alike, the source gives them in different places. Marks after values point to notes of the source that are not given here. Where a SMILES comes first, the peptide text is derived from it.
Key:
[1] = tested on: S. aureus strain MBT 5040; assay: MIC by microtiter dilution assay; assay type: cell-based
Method: At the same time, a Columbia agar plate containing 2% NaCl (CSA) was inoculated with S. aureus strain MBT 5040 from a frozen stock. […] The MIC of a drug for a particular bacterial strain is the minimum concentration of the drug that inhibits normal growth of that particular bacterial strain.
Any detected S. aureus after lysostaphin treatment were tested for lysostaphin resistance by microtiter dilution assay. […] Plates were prepared by making lysostaphin dilutions in cation-adjusted Mueller Hinton broth+2%NaCl and 0.1%BSA (CAMHB+). The CAMHB+2% NaCl was made first, autoclaved, and then sterile 30% BSA was added to equal 0.1% BSA concentration. BSA prevents nonspecific lysostaphin interaction with plastic. The final volume of CAMHB+ in each well was 50 μl. Dilutions were 1:2, prepared by mixing 50 μl of the previous dilution into 50 μl of fresh media. The final row on the plate was left with no lysostaphin added as a control for growth. […] Overnight cultures were diluted ˜1:1000, as determined empirically, to yield a final concentration of 5×10^5/ml by measuring the optical density at 650 nm (OD650). […] The minimal inhibitory concentration (MIC) of lysostaphin, the lowest concentration of lysostaphin that prevents normal growth, was determined by reading the OD650 on a microplate reader.
Plates were incubated at room temperature for 6 to 18 hours. The OD650 was determined.

S. aureus (ATCC 49521) = assay: Lysostaphin MIC assay, outgrowth of lysostaphin resistance with or without sub-MIC bacitracin or nisin; assay type: cell-based; set-up: key to growth in lysostaphin MIC assay: G = Normal growth; Blank = no growth; R = resistance outgrowth as determined by addition of 20 μg/ml lysostaphin for 4 hrs following initial overnight incubation; details: for growth in lysostaphin MIC assay: replicate rows
Method: When lysostaphin is tested in a standard “Minimum Inhibitory Concentration” (MIC) assay, outgrowth of S. aureus is sometime observed above the MIC for almost all strains of S. aureus examined. On further testing, these outgrowth wells are found to contain lysostaphin-resistant S. aureus with MICs many dilutions above the MIC of the parental strain. […] This Example illustrates that the addition of the antibacterial agent bacitracin, eliminates lysostaphin-resistant outgrowths in vitro, and may likewise reduce or eliminate resistant outgrowths in vivo. […] Of course, nasal formulations comprising antibacterial agents above the MIC for that particular agent are also within the scope of this invention.
In this experiment a NCCLS standard MIC is conducted with the modification of adding 0.1% BSA to the assay. Rows 1-4 are lysostaphin MICs conducted in the absence of bacitracin while rows 5-8 are lysostaphin MICs conducted in the presence of bacitracin (5 μg/ml).
(§1) Lysostaphin MIC assays were conducted in the presence or absence of subinhibitory concentrations (four-fold dilution below MIC) of either bacitracin or nisin to determine if either substance prevented the outgrowth of lysostaphin resistance in these assays. This is as previously described in Example 14, above.

S. aureus MBT 5040 = assay: Cotton rat model, cream instilled before instillation of bacteria (blocking of colonization); assay type: in vivo; details: administered in a viscous formulation such as a cream
Method: To determine how long lysostaphin, when administered in a cream formulation, remains active in the nares, a single dose of 2% lysostaphin cream was instilled in cotton rat noses 48 hours, 24 hours, and 8 hours prior to instillation of 10^9 CFU of S. aureus MBT 5040. Control animals received control cream, without lysostaphin, 8 hours prior to receiving bacteria. Six days after introduction of the bacteria, each of the 5 animals per experimental group were sacrificed and the noses checked for S. aureus colonization.

[2] = tested on: S. aureus strain MRSA 12/12; assay: Cotton rat nasal colonization model, single dose of cream; assay type: in vivo; details: Table 6d; single dose of 0.5% lysostaphin cream
Method: To further explore the relationship between lysostaphin-resistance and nasal colonization, treatment of S. aureus strain MRSA 12/12 nasal colonization with a single dose of 0.5% lysostaphin cream was also examined. MRSA 12/12 colonized the cotton rat nares (Table 6d), and a single treatment of 0.5% lysostaphin cream also eradicated nasal colonization by this strain. Nasal supernatant from treated animals was plated on both TSA/NaCl+nafcillin and TSA/NaCl alone since when MRSA become lysostaphin-resistant they revert to MSSA (17).

MBT 5040 LysoR = assay: MIC of lysostaphin for lysostaphin-resistant variant; assay type: cell-based, S. aureus; details: variant isolated in vitro
Method: Any detected S. aureus after lysostaphin treatment were tested for lysostaphin resistance by microtiter dilution assay. Lysostaphin was resuspended in sterile PBS, aliquotted and stored at −80° C. […] Once thawed, an aliquot of lysostaphin was stored at 4° C. and used for no more than two weeks. Plates were prepared by making lysostaphin dilutions in cation-adjusted Mueller Hinton broth+2%NaCl and 0.1%BSA (CAMHB+). The CAMHB+2% NaCl was made first, autoclaved, and then sterile 30% BSA was added to equal 0.1% BSA concentration. […] The final volume of CAMHB+ in each well was 50 μl. Dilutions were 1:2, prepared by mixing 50 μl of the previous dilution into 50 μl of fresh media. The final row on the plate was left with no lysostaphin added as a control for growth. A starting concentration of 1 μg/ml lysostaphin was used as the stock concentration. […] Overnight cultures were diluted ˜1:1000, as determined empirically, to yield a final concentration of 5×10^5/ml by measuring the optical density at 650 nm (OD650). […] The minimal inhibitory concentration (MIC) of lysostaphin, the lowest concentration of lysostaphin that prevents normal growth, was determined by reading the OD650 on a microplate reader.
Plates were incubated at room temperature for 6 to 18 hours. The OD650 was determined. […]

[3] = tested on: S. aureus strain SA 3865 (mupirocin resistant); assay: Cotton rat nasal colonization model, single dose of cream; assay type: in vivo; details: Table 6d; single dose of 0.5% lysostaphin cream
Type 8 S. aureus (MSSA) = assay: as above; assay type: in vivo; details: Table 6d; single dose of 0.5% lysostaphin cream
Method: (§2) On the day of instillation, S. aureus MBT 5040 was harvested from the CSA plate by scraping colonies into sterile. PBS (1 ml/animal to be instilled) until the percent transmittance of the sample was approximately 10% at […] in a 10 mm path length. The bacteria were pelleted by centrifugation and then resuspended in 10 μl/animal of sterile PBS. Cotton rats were sedated with 200 μl of Ketamine (25 mg/kg), Rompun (2.5 mg/kg), and Acepromazine (2.5 mg/kg) delivered intramuscularly. Ten microliters, approximately 10^9 S. aureus CFUs per animal, of MBT 5040 in PBS was instilled in the nares using a micropipette without touching the nares. Specifically, a drop of bacterial inoculum was placed on the nostril with a micropipettor, without touching the nose. The animal's regular process of respiration then inhaled the drop into the nares. After introduction of the MBT 5040 bacteria, the cotton rats were returned to normal water, without nafcillin. Unless otherwise indicated, this method was consistently used to instill S. aureus in the nares for all examples discussed below.
(§3) Ten cotton rats were nasally instilled with MBT 5040 S. aureus. On day 4 and day 5 post-instillation, the 5 animals were treated with a 0.5% lysostaphin cream and 5 animals were treated with a cream without lysostaphin added. Cream formulations were delivered into the nares of anaesthetized cotton rats by syringe through an Angiocath™ 22 GA flexible catheter (Becton Dickinson). The catheter was inserted approximately 3 mm into each of the nares and then drawn back as the cream was delivered. The noses of the cotton rats were massaged well following cream delivery to ensure good dispersal of cream. The dose of cream delivered to the nares was approximately 30-50 μl. Due to the cream's highly viscous nature, it was difficult to precisely gauge to volume of creams delivered to the nares. Unless otherwise indicated, this method of cream delivery into the nares was used throughout the examples below.
(§4) To determine the efficacy of a single dose of 0.5% lysostaphin cream in eradicating S. aureus nasal colonization, cotton rats were instilled with either MBT 5040 (MRSA), Type 5 S. aureus (sensitive to methicillin; MSSA), or Type 8 S. aureus (MSSA). Half of the animals in each group were treated once on day 5 post-instillation with negative control cream and other half of the animals were treated on the same day with 0.5% lysostaphin cream.

Type 5 S. aureus (MSSA) = assay: as above; assay type: in vivo; details: Table 6d; single dose of 0.5% lysostaphin cream
Method: as §2, §3, §4

SA8 Sam = assay: Lysostaphin MIC assay, outgrowth of lysostaphin resistance with or without sub-MIC bacitracin or nisin; assay type: cell-based, S. aureus; details: nisin or bacitracin at four-fold dilution below MIC
Method: as §1

SA5 USU = assay: as above; assay type: cell-based, S. aureus; details: nisin or bacitracin at four-fold dilution below MIC
Method: as §1

SA5 Sam = assay: as above; assay type: cell-based, S. aureus; details: nisin or bacitracin at four-fold dilution below MIC
Method: as §1

S. aureus = assay: Proteinase K neutralization of lysostaphin activity in vitro; assay type: cell-based; details: 10^5 S. aureus in PBS; lysostaphin 10 mcg and/or 10 mg/ml Proteinase K; 20 minutes at room temperature
Method: Lysostaphin (10 mcg) was added to some samples of 10^5 S. aureus in PBS in the presence or absence of 10 mg/ml Proteinase K. The samples were incubated for 20 minutes at room temperatures and then 100 microliter aliquots were plated on blood agar.

COc1cccc(OC)c1C(=O)N[C@@H]1C(=O)N2[C@@H]1SC(C)(C)[C@@H]2C(=O)O [methicillin, reference compound] was tested, and the MIC ([1]; Staphylococcus aureus, MBT5040, read-out: MIC) was over 36 µg/mL.
For CC[C@H](C)[C@H](N)C1=N[C@H](C(=O)N[C@@H](CC(C)C)C(=O)N[C@H](CCC(=O)O)C(=O)N[C@H](C(=O)N[C@H]2CCCCNC(=O)[C@H](CC(N)=O)NC(=O)[C@@H](CC(=O)O)NC(=O)[C@H](Cc3cnc[nH]3)NC(=O)[C@@H](Cc3ccccc3)NC(=O)[C@H]([C@@H](C)CC)NC(=O)[C@@H](CCCN)NC2=O)[C@@H](C)CC)CS1 [Bacitracin, bacitracin, reference compound] (HELM PEPTIDE1{[CC[C@H](C)[C@H](N)C1=N[C@H](C(=O)[*:2])CS1].L.[dE].I.K.[NCCC[C@@H](N[*:1])C(=O)[*:2]].I.[dF].H.[dD].N}$PEPTIDE1,PEPTIDE1,5:R3-11:R2$$$V2.0), the “growth in lysostaphin MIC assay” value (S. aureus (ATCC 49521); lysostaphin 0 ng/ml, bacitracin 5 μg/ml) was “G^”.
In the case of “Lysostaphin: antibacterial endopeptidase cleaving pentaglycine bridges of staphylococcal cell walls; Ambicin L (recombinant lysostaphin) used in Examples 1-10”, the “time lysostaphin remains active in the nares after administration” value (S. aureus MBT 5040) is reported as “at least 48 hours”, the “Animals Colonized/Animals Tested” value [2] is reported as 0/5 and the “Mean Colonization” value [2] is reported as 0. For the same molecule, the MIC (MBT 5040 LysoR) was over 32 µg/mL, the “Animals Colonized/Animals Tested” value [3] was 0/5 and the “Mean Colonization” value [3] was 0. The “Animals Colonized/Animals Tested” value (Type 8 S. aureus (MSSA)) was 0/5, the “Mean Colonization” value (Type 8 S. aureus (MSSA)) was 0 and the “Animals Colonized/Animals Tested” value (Type 5 S. aureus (MSSA)) was 0/5. For the same molecule, the “Mean Colonization” value (Type 5 S. aureus (MSSA)) was 0, the “Percentage of wells above lysostaphin MIC that have outgrowth of lysostaphin-resistance” value (from here on “Percentage”) (SA8 Sam) was 58% and the “Percentage” value (SA5 USU) was 14%. For the same molecule, the “Percentage” value (SA5 Sam) was 18%, the MIC [1] was 0.064 µg/mL and the “growth in lysostaphin MIC assay” value (S. aureus (ATCC 49521); lysostaphin 0.25 ng/ml, no bacitracin) was “G”. For the same molecule, the “growth in lysostaphin MIC assay” value (S. aureus (ATCC 49521); lysostaphin 0.5 ng/ml, no bacitracin) was “G”, the “growth in lysostaphin MIC assay” value (S. aureus (ATCC 49521); lysostaphin 1 ng/ml, no bacitracin) was “G” and the “growth in lysostaphin MIC assay” value (S. aureus (ATCC 49521); lysostaphin 2 ng/ml, no bacitracin) was “R”. The “growth in lysostaphin MIC assay” value (S. aureus (ATCC 49521); lysostaphin 4 ng/ml, no bacitracin) was “R^3 and R^”, the “growth in lysostaphin MIC assay” value (S. aureus (ATCC 49521); lysostaphin 8 ng/ml, no bacitracin) was “R” and the “growth in lysostaphin MIC assay” value (S. aureus (ATCC 49521); lysostaphin 16 ng/ml, no bacitracin) was “R”. For the same molecule, the “growth in lysostaphin MIC assay” value (S. aureus (ATCC 49521); lysostaphin 32 ng/ml, no bacitracin) was “R”, the “growth in lysostaphin MIC assay” value (S. aureus (ATCC 49521); lysostaphin 125 ng/ml, no bacitracin) was “R” and the “growth in lysostaphin MIC assay” value (S. aureus (ATCC 49521); lysostaphin 250 ng/ml, no bacitracin) was “R”. The “Percentage” value (S. aureus (ATCC 49521); nisin or bacitracin at four-fold dilution below MIC) was 31^a % and the “CFUs Recovered” value (S. aureus) was 0 CFUs.

— US20030211995A1, “Methods and formulations for eradicating or alleviating staphylococcal nasal colonization using lysostaphin” (priority 2001, published 2003)
